# Reference: US6653529B2, “Use of the maize X112 mutant ahas 2 gene and imidazolinone herbicides for selection of transgenic monocots, maize, rice and wheat plants resistant to the imidazolinone herbicides” (BASF Aktiengesellschaft, priority 2000, dated 2003)
# Values joined by “and” are separate entries in the source; they are usually repeats but may differ in a detail not shown here. Identical values can stand only once.
# Legend:
# Assay type in all cases: in vivo
# [1] = tested on: 8692 (wild type control corn line); assay: Greenhouse spray test of corn lines with imidazolinone herbicides, injury score; settings: for Score, individual plants (0 dead plants, 5 healthy plants with no injury): 16 days after treatment; for M.S.: score 0 (dead) to 5 (healthy), 16 days
# [2] = tested on: transgenic corn hybrid BAa-4; assay: as above; settings: for Score, individual plants (0 dead plants, 5 healthy plants with no injury) / M.S.: BAa-4; for Score, individual plants (0 dead plants, 5 healthy plants with no injury): 16 days after treatment; for M.S.: score 0 (dead) to 5 (healthy), 16 days
# [3] = tested on: transgenic corn hybrid MAa-7; assay: as above; settings: for Score, individual plants (0 dead plants, 5 healthy plants with no injury) / M.S.: MAa-7; for Score, individual plants (0 dead plants, 5 healthy plants with no injury): 16 days after treatment; for M.S.: score 0 (dead) to 5 (healthy), 16 days
# [4] = tested on: 3395IR (homozygous XA17 imi-resistant corn line); assay: as above; settings: for Score, individual plants (0 dead plants, 5 healthy plants with no injury): 16 days after treatment; for M.S.: score 0 (dead) to 5 (healthy), 16 days
# [5] = tested on: non-transformed control corn line BxA (B73×A188); assay: as above; settings: for Score, individual plants (0 dead plants, 5 healthy plants with no injury): 16 days after treatment; for M.S.: score 0 (dead) to 5 (healthy), 16 days
# [6] = tested on: 8692IT (heterozygous XI12 imi-tolerant corn line); assay: as above; settings: for Score, individual plants (0 dead plants, 5 healthy plants with no injury): 16 days after treatment; for M.S.: score 0 (dead) to 5 (healthy), 16 days
# [7] = tested on: transgenic rice Line 26; assay: Response of rice plants to various herbicides, seed set in greenhouse; settings: post-emergence, 1× g ai/ha: PURSUIT 62.5, CADRE 32, ARSENAL 24, RAPTOR 32, SCEPTER 125, ACCENT 35, CLASSIC 5, AC322,140 20, LONDAX 68
# Outline: (§1)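 Greenhouse flats, 10 plants per cell; 9 herbicides (imidazolinones, rice herbicides, nicosulfuron, chlorimuron-ethyl) sprayed pre- or post-emergence at 1, 2, 4 and 6× rates, three replications. Fresh weight taken 32 days (pre) or 29 days (post, 5 plants/cell) after spraying; remaining plants grown to maturity for percentage filled-seed set.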
# [8] = tested on: untransformed Nt rice plants; assay: as above; settings: post-emergence, 1× g ai/ha: PURSUIT 62.5, CADRE 32, ARSENAL 24, RAPTOR 32, SCEPTER 125, ACCENT 35, CLASSIC 5, AC322,140 20, LONDAX 68
# Outline: as §1
# [9] = tested on: transgenic rice Line 29; assay: as above; settings: post-emergence, 1× g ai/ha: PURSUIT 62.5, CADRE 32, ARSENAL 24, RAPTOR 32, SCEPTER 125, ACCENT 35, CLASSIC 5, AC322,140 20, LONDAX 68
# Outline: as §1
# [10] = 4×: PURSUIT 250, RAPTOR 160, ARSENAL 96, CADRE 400 g/ha
# [11] = 8×: PURSUIT 500, RAPTOR 320, ARSENAL 192, CADRE 800 g/ha
# [12] = 16×: RAPTOR 640 g/ha, ARSENAL 384 g/ha, CADRE 1.6 kg/ha
smiles,measurement,setting,value
"COCc1cnc(C2=NC(C)(C(C)C)C(=O)N2)c(C(=O)O)c1 (centres unmarked) [RAPTOR ®, imazamox]","Score, individual plants (0 dead plants, 5 healthy plants with no injury)",[1]; [10],0
same,M.S.,[1]; [10],0
same,"Score, individual plants (0 dead plants, 5 healthy plants with no injury)",[1]; [11],0
same,M.S.,[1]; [11],0
same,"Score, individual plants (0 dead plants, 5 healthy plants with no injury)",[1]; [12],0
same,M.S.,[1]; [12],0
same,growth of transgenic line BAa-4,[2]; 4× (160 g/ha),slightly affected
same,"Score, individual plants (0 dead plants, 5 healthy plants with no injury)",[2]; [10],3 and 4 (4×)
same,M.S.,[2]; [10],3.8
same,"Score, individual plants (0 dead plants, 5 healthy plants with no injury)",[2]; [11],4 (4×) and 0
same,M.S.,[2]; [11],3.2
same,"Score, individual plants (0 dead plants, 5 healthy plants with no injury)",[2]; [12],3 and 0 (3×) and 1
same,M.S.,[2]; [12],0.8
same,performance of transgenic line MAa-7,[3]; 4× (160 g/ha),performed well
same,"Score, individual plants (0 dead plants, 5 healthy plants with no injury)",[3]; [10],4 and 5 (4×)
same,M.S.,[3]; [10],4.8
same,"Score, individual plants (0 dead plants, 5 healthy plants with no injury)",[3]; [11],3 (3×) and 2 and 4
same,M.S.,[3]; [11],3
same,"Score, individual plants (0 dead plants, 5 healthy plants with no injury)",[3]; [12],1
same,M.S.,[3]; [12],1
same,"Score, individual plants (0 dead plants, 5 healthy plants with no injury)",[4]; [10],5
same,M.S.,[4]; [10],5
same,"Score, individual plants (0 dead plants, 5 healthy plants with no injury)",[4]; [11],5
same,M.S.,[4]; [11],5
same,"Score, individual plants (0 dead plants, 5 healthy plants with no injury)",[4]; [12],5
same,M.S.,[4]; [12],5
same,"Score, individual plants (0 dead plants, 5 healthy plants with no injury)",[5]; [10],0
same,M.S.,[5]; [10],0
same,"Score, individual plants (0 dead plants, 5 healthy plants with no injury)",[5]; [11],0
same,M.S.,[5]; [11],0
same,"Score, individual plants (0 dead plants, 5 healthy plants with no injury)",[5]; [12],0
same,M.S.,[5]; [12],0
same,"Score, individual plants (0 dead plants, 5 healthy plants with no injury)",[6]; [10],4 and 3 (3×) and 2
same,M.S.,[6]; [10],3
same,"Score, individual plants (0 dead plants, 5 healthy plants with no injury)",[6]; [11],3 (2×) and 2 (2×)
same,M.S.,[6]; [11],2.5
same,"Score, individual plants (0 dead plants, 5 healthy plants with no injury)",[6]; [12],2 (2×) and 1 and 0 (2×)
same,M.S.,[6]; [12],1
same,% seed-set,[7]; 1× rate,87%
same,No. filled seeds/3 panicles,[7]; 1× rate,156
same,Total No. of kernels/3 panicles,[7]; 1× rate,180
same,% seed-set,[7]; 2× rate,89%
same,No. filled seeds/3 panicles,[7]; 2× rate,172
same,Total No. of kernels/3 panicles,[7]; 2× rate,193
same,% seed-set,[7]; 4× rate,91%
same,No. filled seeds/3 panicles,[7]; 4× rate,166
same,Total No. of kernels/3 panicles,[7]; 4× rate,183
same,% seed-set,[7]; 6× rate,77%
same,No. filled seeds/3 panicles,[7]; 6× rate,136
same,Total No. of kernels/3 panicles,[7]; 6× rate,167
same,% seed-set,[8]; 1× rate,0%
same,No. filled seeds/3 panicles,[8]; 1× rate,0
same,Total No. of kernels/3 panicles,[8]; 1× rate,0
same,% seed-set,[8]; 2× rate,0%
same,No. filled seeds/3 panicles,[8]; 2× rate,0
same,Total No. of kernels/3 panicles,[8]; 2× rate,0
same,% seed-set,[8]; 4× rate,0%
same,No. filled seeds/3 panicles,[8]; 4× rate,0
same,Total No. of kernels/3 panicles,[8]; 4× rate,0
same,% seed-set,[8]; 6× rate,0%
same,No. filled seeds/3 panicles,[8]; 6× rate,0
same,Total No. of kernels/3 panicles,[8]; 6× rate,0
same,% seed-set,[9]; 1× rate,89%
same,No. filled seeds/3 panicles,[9]; 1× rate,161
same,Total No. of kernels/3 panicles,[9]; 1× rate,180
same,% seed-set,[9]; 2× rate,80%
same,No. filled seeds/3 panicles,[9]; 2× rate,137
same,Total No. of kernels/3 panicles,[9]; 2× rate,171
same,% seed-set,[9]; 4× rate,91%
same,No. filled seeds/3 panicles,[9]; 4× rate,152
same,Total No. of kernels/3 panicles,[9]; 4× rate,167
same,% seed-set,[9]; 6× rate,80%
same,No. filled seeds/3 panicles,[9]; 6× rate,125
same,Total No. of kernels/3 panicles,[9]; 6× rate,149
